US10370387B2, “Tricyclic fused thiophene derivatives as JAK inhibitors” (Incyte Corporation, priority 2012, dated 2019)
Structures can show the parent of a compound that is named as a salt.

tested on: human JAK1; assay: In vitro JAK kinase assay (HTRF, phosphorylation of biotinylated peptide), JAK1; assay type: biochemical; conditions: ratio of JAK2 IC50 to JAK1 IC50, 1 mM ATP
Method: Compounds herein were tested for inhibitory activity of JAK targets according to the following in vitro assay described in Park et al., Analytical Biochemistry 1999, 269, 94-104. The catalytic domains of human JAK1 (a.a. 837-1142), JAK2 (a.a. 828-1132) and JAK3 (a.a. 781-1124) were expressed using baculovirus in insect cells and purified. The catalytic activity of JAK1, JAK2 or JAK3 was assayed by measuring the phosphorylation of a biotinylated peptide. The phosphorylated peptide was detected by homogenous time resolved fluorescence (HTRF). IC50s of compounds were measured for each kinase in the 40 μL reactions that contain the enzyme, ATP and 500 nM peptide in 50 mM Tris (pH 7.8) buffer with 100 mM NaCl, 5 mM DTT, and 0.1 mg/mL (0.01%) BSA. For the 1 mM IC50 measurements, ATP concentration in the reactions was 1 mM. Reactions were carried out at room temperature for 1 hour and then stopped with 20 μL 45 mM EDTA, 300 nM SA-APC, 6 nM Eu-Py20 in assay buffer (Perkin Elmer, Boston, Mass.). Binding to the Europium labeled antibody took place for 40 minutes and HTRF signal was measured on a PHERA star plate reader (BMG, Cary, N.C.). The Example compounds were each tested in the Example A assay (see Table 1 for data for the compounds of the examples as tested by the assay of Example A at 1 mM ATP).

Molecule	JAK2/JAK1
C[C@@H](O)c1nc2cnc3ccsc3c2n1C1CCCC(CCC#N)C1 (stereo partly drawn) [Example 32, 3-(3-{2-[(1R)-1-Hydroxyethyl]-1H-imidazo[4,5-d]thieno[3,2-b]pyridin-1-yl}cyclohexyl)propanenitrile]	>10
C[C@@H](O)c1nc2cnc3ccsc3c2n1C1CCN(CCCC(F)(F)F)CC1 [Example 60, (1R)-1-{1-[1-(4,4,4-Trifluorobutyl)piperidin-4-yl]-1H-imidazo[4,5-d]thieno[3,2-b]pyridin-2-yl}ethanol]	>10
CC(F)c1nc2cnc3ccsc3c2n1[C@H]1CC[C@H](CC#N)OC1 (stereo partly drawn) [Example 71, {(2R,5S)-5-[2-(1-Fluoroethyl)-1H-imidazo[4,5-d]thieno[3,2-b]pyridin-1-yl]tetrahydro-2H-pyran-2-yl}acetonitrile]	>10
CCc1nc2cnc3ccsc3c2n1[C@H]1CC[C@H](CC#N)OC1 [Example 39, [(2R,5S)-5-(2-Ethyl-1H-imidazo[4,5-d]thieno[3,2-b]pyridin-1-yl)tetrahydro-2H-pyran-2-yl]acetonitrile]	>10
CNS(=O)(=O)C[C@H]1CC[C@H](n2c([C@@H](C)O)nc3cnc4ccsc4c32)CC1 [Example 14, 1-(trans-4-{2-[(1R)-1-hydroxyethyl]-1H-imidazo[4,5-d]thieno[3,2-b]pyridin-1-yl}cyclohexyl)-N-methylmethanesulfonamide]	>5
CCOC(=O)NC[C@H]1CC[C@H](n2c([C@@H](C)O)nc3cnc4ccsc4c32)CC1 [Example 82, Ethyl [(trans-4-{2-[(1R)-1-hydroxyethyl]-1H-imidazo[4,5-d]thieno[3,2-b]pyridin-1-yl}cyclohexyl)methyl]carbamate]	>10
CCNC(=O)C[C@H]1CC[C@H](n2c([C@@H](C)O)nc3cnc4ccsc4c32)CC1 [Example 31, N-Ethyl-2-(trans-4-{2-[(1R)-1-hydroxyethyl]-1H-imidazo[4,5-d]thieno[3,2-b]pyridin-1-yl}cyclohexyl)acetamide]	>10
CCOC(=O)N1CCC[C@H](n2c([C@@H](C)O)nc3cnc4ccsc4c32)C1 [Example 50, Ethyl (3S)-3-{2-[(1R)-1-hydroxyethyl]-1H-imidazo[4,5-d]thieno[3,2-b]pyridin-1-yl}piperidine-1-carboxylate]	>10
CCc1nc2cnc3ccsc3c2n1[C@@H]1CC[C@@H](CC#N)[C@@H](O)C1 (mixture of isomers) [Example 35]	>10
CC(C)OC(=O)NC[C@H]1CC[C@H](n2c(CC#N)nc3cnc4ccsc4c32)CC1 [Example 88, Isopropyl ({trans-4-[2-(cyanomethyl)-1H-imidazo[4,5-d]thieno[3,2-b]pyridin-1-yl]cyclohexyl}methyl)carbamate]	>10
CS(=O)(=O)NCc1nc2cnc3ccsc3c2n1[C@H]1CC[C@H](CC#N)CC1 [Example 18, N-({1-[trans-4-(Cyanomethyl)cyclohexyl]-1H-imidazo[4,5-d]thieno[3,2-b]pyridin-2-yl}methyl)methanesulfonamide]	>10
C[C@@H](O)c1nc2cnc3ccsc3c2n1[C@H]1CC[C@H](CO)CC1 [Example 11, (1R)-1-{1-[trans-4-(Hydroxymethyl)cyclohexyl]-1H-imidazo[4,5-d]thieno[3,2-b]pyridin-2-yl}ethanol]	>10
N#CC[C@H]1CC[C@H](n2c(C3CC3)nc3cnc4ccsc4c32)CC1 [Example 26, [trans-4-(2-Cyclopropyl-1H-imidazo[4,5-d]thieno[3,2-b]pyridin-1-yl)cyclohexyl]acetonitrile]	>10
CC(C)c1nc2cnc3ccsc3c2n1[C@H]1CC[C@H](CC#N)CC1 [Example 27, [trans-4-(2-Isopropyl-1H-imidazo[4,5-d]thieno[3,2-b]pyridin-1-yl)cyclohexyl]acetonitrile]	>10
C[C@@H](O)c1nc2cnc3ccsc3c2n1[C@H]1CCCN(C(=O)CCCC#N)C1 [Example 59, 5-((3S)-3-{2-[(1R)-1-Hydroxyethyl]-1H-imidazo[4,5-d]thieno[3,2-b]pyridin-1-yl}piperidin-1-yl)-5-oxopentanenitrile]	>10
Cc1nc2cnc3ccsc3n2c1-c1ccc(CC#N)cc1 [Example 33, [4-(7-Methylimidazo[1,2-a]thieno[3,2-e]pyrazin-8-yl)phenyl]acetonitrile]	>7

Molecule	JAK2/JAK1
Cc1nc2cnc3ccsc3c2n1[C@@H]1CC[C@@H](CC#N)[C@@H](O)C1 (mixture of isomers) [Example 34, Mixture of [(1R, 2R, 4S)-2-hydroxy-4-(2-methyl-1H-imidazo[4,5-d]thieno[3,2-b]pyridin-1-yl)cyclohexyl]acetonitrile trifluoroacetate and [(1S, 2S, 4R)-2-hydroxy-4-(2-methyl-1H-imidazo[4,5-d]thieno[3,2-b]pyridin-1-yl)cyclohexyl]acetonitrile trifluoroacetate]	>10
CC(=O)NC[C@H]1CC[C@H](n2c([C@@H](C)O)nc3cnc4ccsc4c32)CC1 [Example 79, N-[(trans-4-{2-[(1R)-1-Hydroxyethyl]-1H-imidazo[4,5-d]thieno[3,2-b]pyridin-1-yl}cyclohexyl)methyl]acetamide]	>10
C[C@@H](O)c1nc2cnc3ccsc3c2n1[C@H]1CC[C@H](CF)CC1 [Example 12, (1R)-1-{1-[trans-4-(Fluoromethyl)cyclohexyl]-1H-imidazo[4,5-d]thieno[3,2-b]pyridin-2-yl}ethanol]	>10
C[C@@H](O)c1nc2cnc3ccsc3c2n1[C@H]1CCCN(C(=O)CCC(F)(F)F)C1 [Example 52, (1R)-1-{1-[(3S)-1-(4,4,4-Trifluorobutanoyl)piperidin-3-yl]-1H-imidazo[4,5-d]thieno[3,2-b]pyridin-2-yl}ethanol]	>10
C[C@@H](O)c1nc2cnc3ccsc3c2n1[C@H]1CCN(C(=O)CC#N)C1 [Example 63, 3-((3S)-3-{2-[(1R)-1-Hydroxyethyl]-1H-imidazo[4,5-d]thieno[3,2-b]pyridin-1-yl}pyrrolidin-1-yl)-3-oxopropanenitrile]	>6
C[C@@H](O)c1nc2cnc3ccsc3c2n1[C@H]1CC[C@H](CC#N)CC1.Cl [Example 10, (trans-4-{2-[(1R)-1-Hydroxyethyl]-1H-imidazo[4,5-d]thieno[3,2-b]pyridin-1-yl}cyclohexyl)acetonitrile HCl salt]	>10
C[C@@H](O)c1nc2cnc3ccsc3c2n1[C@H]1CC[C@@H](CC#N)OC1 [Example 21, ((2S,5S)-5-{2-[(1R)-1-Hydroxyethyl]-1H-imidazo[4,5-d]thieno[3,2-b]pyridin-1-yl}tetrahydro-2H-pyran-2-yl)acetonitrile]	>10
C[C@@H](O)c1nc2cnc3ccsc3c2n1C1CCCCC1 [Example 13, (1R)-1-(1-Cyclohexyl-1H-imidazo[4,5-d]thieno[3,2-b]pyridin-2-yl)ethanol]	>10
C[C@@H](O)c1nc2cnc3ccsc3c2n1[C@H]1CC[C@H](CC#N)CC1 [Example 2, (trans-4-{2-[(1R)-1-Hydroxyethyl]-1H-imidazo[4,5-d]thieno[3,2-b]pyridin-1-yl}cyclohexyl)acetonitrile]	>10
((1R,2S,4S)-2-Hydroxy-4-{2-[(1R)-1-hydroxyethyl]-1H-imidazo[4,5-d]thieno[3,2-b]pyridin-1-yl}cyclohexyl)acetonitrile trifluoacetate and ((1S,2R,4R)-2-hydroxy-4-{2-[(1R)-1-hydroxyethyl]-1H-imidazo[4,5-d]thieno[3,2-b]pyridin-1-yl}cyclohexyl)acetonitrile trifluoacetate [37 (first peak)]	>10
C[C@@H](O)c1nc2cnc3ccsc3c2n1[C@H]1CCCN(C(=O)CCc2cn[nH]c2)C1 [Example 53, (1R)-1-(1-{(3S)-1-[3-(1H-Pyrazol-4-yl)propanoyl]piperidin-3-yl}-1H-imidazo[4,5-d]thieno[3,2-b]pyridin-2-yl)ethanol]	>10
((1R,2R,4S)-2-Hydroxy-4-{2-[(1R)-1-hydroxyethyl]-1H-imidazo[4,5-d]thieno[3,2-b]pyridin-1-yl}cyclohexyl)acetonitrile and ((1S,2S,4R)-2-hydroxy-4-{2-[(1R)-1-hydroxyethyl]-1H-imidazo[4,5-d]thieno[3,2-b]pyridin-1-yl}cyclohexyl)acetonitrile [36 (first peak)]	>10
C[C@@H](O)c1nc2cnc3ccsc3c2n1C1CCN(CC(F)(F)F)CC1 [Example 15, (1R)-1-{1-[1-(2,2,2-Trifluoroethyl)piperidin-4-yl]-1H-imidazo[4,5-d]thieno[3,2-b]pyridin-2-yl}ethanol]	>9
C[C@@H](O)c1nc2cnc3ccsc3c2n1[C@H]1CC[C@H](CNS(C)(=O)=O)CC1 [Example 80, N-[(trans-4-{2-[(1R)-1-Hydroxyethyl]-1H-imidazo[4,5-d]thieno[3,2-b]pyridin-1-yl}cyclohexyl)methyl]methanesulfonamide]	>10
C[C@@H](O)c1nc2cnc3ccsc3c2n1[C@H]1CC[C@H](CNS(C)(=O)=O)OC1 [Example 75, N-[((2R,5S)-5-{2-[(1R)-1-Hydroxyethyl]-1H-imidazo[4,5-d]thieno[3,2-b]pyridin-1-yl}tetrahydro-2H-pyran-2-yl)methyl]methanesulfonamide]	>10
